This is an account of results in ChEMBL document CHEMBL1126862, “Substituted 3-phenylpiperidines: new centrally acting dopamine autoreceptor antagonists” (J Med Chem, 1993).

A word on the half-life: it is the time in which the quantity being followed falls by half. The IC50 is the concentration needed to halve the response being measured. In general, Ki refers to a measure of affinity in units of concentration, obtained from inhibition or displacement.

A short description of series [1]: Half life was estimated from the elimination phase of the blood concentration curves after peroral administration. In kind it is ADME, organism-based. The note with it: po.
In series [2] the test system is Rattus norvegicus. Put plainly: Evaluated for DOPA accumulation in limbic region of nonpretreated rat at 25 umol / kg administered subcutaneously. In kind it is functional, Limbic system.
For series [3], the system named is Rattus norvegicus. Put plainly: Evaluated for 5-HTP increase in hemisphere region of nonpretreated rat at 100 umol / kg administered subcutaneously. In kind it is functional.
For series [4], the system named is Rattus norvegicus. As to the kind of experiment: Evaluated for 5-HTP increase in limbic region of nonpretreated rat at 100 umol / kg administered subcutaneously. In kind it is functional, Limbic system.
Series [5] deals with Rattus norvegicus. Put plainly: Evaluated for DOPA accumulation in limbic region of reserpine pretreated rat at 100 umol / kg administered intraperitoneally. In kind it is functional, Limbic system.
Series [6] deals with Rattus norvegicus. Put plainly: Evaluated for DOPA accumulation in striatum of nonpretreated rat at 100 umol / kg administered subcutaneously. In kind it is functional.
The subject of series [7] is Rattus norvegicus. As to the kind of experiment: Evaluated for DOPA accumulation in striatum of nonpretreated rat at 25 umol / kg administered subcutaneously. In kind it is functional.
Series [8] concerns Rattus norvegicus. As to the kind of experiment: Evaluated for DOPA accumulation in striatum of reserpine pretreated rat at 100 umol / kg administered intraperitoneally. In kind it is functional.
Series [9] has as its system Rattus norvegicus. As to the kind of experiment: Evaluated in rat accumbens for the effect on DOPAC release and metabolism in brain dialysis model after administration of 50 umol / kg subcutaneously. In kind it is functional.
The test system of series [10] is Rattus norvegicus. Put plainly: Evaluated in rat accumbens for the effect on dopamine release and metabolism in brain dialysis model after administration of 50 umol / kg subcutaneously. In kind it is functional.
Series [11] deals with Rattus norvegicus. As to the kind of experiment: Evaluated in rat striatum for the effect on DOPAC release and metabolism in brain dialysis model after administration of 50 umol / kg subcutaneously. In kind it is functional. Further details: unit not given beside the values.
For series [12], the system named is Rattus norvegicus. Put plainly: Evaluated in rat striatum for the effect on dopamine release and metabolism in brain dialysis model after administration of 50 umol / kg subcutaneously. In kind it is functional. On the set-up: unit not given beside the values.
The species entered for series [13] is Rattus norvegicus. As to the kind of experiment: Evaluated for rat locomotor activity in nonhabituated rats at 100 umol / kg. In kind it is functional.
The species named for series [14] is Rattus norvegicus. Put plainly: Evaluated for rat locomotor activity in nonhabituated rats at 25 umol / kg. In kind it is functional.
For series [15], the species on record is Rattus norvegicus. As to the kind of experiment: Rat locomotor activity in reserpine pretreated rats and accumulated counts / 30 min is calculated. In kind it is functional.
For series [16], the target named is Sigma non-opioid intracellular receptor 1 (Rattus norvegicus, UniProt Q9R0C9). As to the kind of experiment: Binding effinity for sigma receptor using 2 nM of [3H]DTG as radioligand, in membranes from brain minus cerebellum. In kind it is tissue-based.
Series [17] has as its system Rattus norvegicus. As to the kind of experiment: Evaluated for DOPA accumulation in limbic region of nonpretreated rat at 52 umol / kg administered subcutaneously. In kind it is functional, Limbic system.
Series [18] has as its system Rattus norvegicus. Put plainly: Evaluated for 5-HTP increase in limbic region of nonpretreated rat at 52 umol / kg administered subcutaneously. In kind it is functional, Limbic system.
The test system of series [19] is Rattus norvegicus. Put plainly: Evaluated for DOPA accumulation in striatum of nonpretreated rat at 52 umol / kg administered subcutaneously. In kind it is functional.
The target of series [20] is T1, D(2) dopamine receptor (Bos taurus, UniProt P20288). As to the kind of experiment: Evaluated for binding towards Dopamine receptor D2 using [3H]-spiperone as radioligand, in cloned mammalian receptors expressed in CHO-K1 cells. In kind it is cell-based.
In series [21] the target is T2, D(2) dopamine receptor (Rattus norvegicus, UniProt P61169). Put plainly: Evaluated for binding towards Dopamine receptor D2 using [3H]N-0437 as radioligand from rat striatal membrane.
Series [22] has as its target T2, D(2) dopamine receptor. As to the kind of experiment: Binding towards Dopamine receptor D2 using [3H]spiperone from rat striatal membrane.
The test system of series [23] is Rattus norvegicus. As to the kind of experiment: Evaluated for DOPA accumulation in limbic region of nonpretreated rat at 13 umol / kg administered subcutaneously. In kind it is functional, Limbic system.
Series [24] deals with Rattus norvegicus. As to the kind of experiment: Evaluated for rat locomotor activity in nonhabituated rats at 52 umol / kg administered subcutaneously. In kind it is functional.
Series [25] is filed under the species Rattus norvegicus. As to the kind of experiment: Evaluated for rat locomotor activity in nonpretreated habituated rats at 25 umol / kg. In kind it is functional.
The test system of series [26] is Rattus norvegicus. As to the kind of experiment: Evaluated for DOPA accumulation in limbic region of reserpine pretreated rat at 52 umol / kg administered subcutaneously. In kind it is functional, Limbic system.
For series [27], the system named is Rattus norvegicus. Put plainly: Evaluated for DOPA accumulation in striatum of nonpretreated rat at 13 umol / kg administered subcutaneously. In kind it is functional.
For series [28], the system named is Rattus norvegicus. Put plainly: Evaluated for DOPA accumulation in striatum of reserpine pretreated rat at 52 umol / kg administered subcutaneously. In kind it is functional.
In series [29] the test system is Rattus norvegicus. As to the kind of experiment: Evaluated in rat accumbens for the effect onDOPAC release and metabolism in brain dialysis model after administration of 50 umol / kg subcutaneously. In kind it is functional.
The subject of series [30] is Rattus norvegicus. Put plainly: Evaluated for rat locomotor activity in nonhabituated rats at 13 umol / kg administered subcutaneously. In kind it is functional.
The target in series [31] is T1, D(2) dopamine receptor. As to the kind of experiment: Binding towards Dopamine receptor D2 expressed in CHO-K1 cells using [3H]U-86170. In kind it is cell-based.
The species named for series [32] is Rattus norvegicus. Put plainly: Evaluated for rat locomotor activity in nonpretreated habituated rats at 100 umol / kg. In kind it is functional. Further details: unit not given beside the values.
The target in a further series is D(3) dopamine receptor (Homo sapiens, UniProt P35462).
The next series deals with T3, D(4) dopamine receptor (Homo sapiens, UniProt P21917).
T3 sequence (P21917 whole entry): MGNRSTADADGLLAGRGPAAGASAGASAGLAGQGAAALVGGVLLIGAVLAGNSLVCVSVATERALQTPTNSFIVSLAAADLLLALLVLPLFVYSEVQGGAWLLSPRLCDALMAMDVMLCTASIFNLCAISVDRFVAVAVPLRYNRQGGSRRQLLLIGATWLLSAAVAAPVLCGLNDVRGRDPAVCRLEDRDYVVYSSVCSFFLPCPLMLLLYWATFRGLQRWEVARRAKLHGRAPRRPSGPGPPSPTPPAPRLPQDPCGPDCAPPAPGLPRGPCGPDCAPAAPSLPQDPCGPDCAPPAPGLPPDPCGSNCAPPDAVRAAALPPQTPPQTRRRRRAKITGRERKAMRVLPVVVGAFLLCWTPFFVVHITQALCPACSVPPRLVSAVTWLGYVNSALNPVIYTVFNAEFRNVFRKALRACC

Series [33] concerns Rattus norvegicus. As to the kind of experiment: Evaluated for rat locomotor activity in nonhabituated rats at 13 umol / kg administered intraperitoneally. In kind it is functional.

T1 sequence (P20288 whole entry): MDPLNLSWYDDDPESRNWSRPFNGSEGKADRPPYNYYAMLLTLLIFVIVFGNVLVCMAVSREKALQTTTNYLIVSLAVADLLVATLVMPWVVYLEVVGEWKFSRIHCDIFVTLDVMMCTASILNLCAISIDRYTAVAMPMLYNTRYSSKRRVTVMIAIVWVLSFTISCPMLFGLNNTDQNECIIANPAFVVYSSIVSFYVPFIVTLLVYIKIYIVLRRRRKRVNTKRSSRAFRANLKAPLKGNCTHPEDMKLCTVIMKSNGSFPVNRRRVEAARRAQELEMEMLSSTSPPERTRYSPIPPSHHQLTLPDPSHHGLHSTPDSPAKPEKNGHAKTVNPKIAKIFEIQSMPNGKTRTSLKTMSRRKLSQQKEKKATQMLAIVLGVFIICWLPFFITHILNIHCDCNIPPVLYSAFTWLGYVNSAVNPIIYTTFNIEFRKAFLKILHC
T2 sequence (P61169 whole entry): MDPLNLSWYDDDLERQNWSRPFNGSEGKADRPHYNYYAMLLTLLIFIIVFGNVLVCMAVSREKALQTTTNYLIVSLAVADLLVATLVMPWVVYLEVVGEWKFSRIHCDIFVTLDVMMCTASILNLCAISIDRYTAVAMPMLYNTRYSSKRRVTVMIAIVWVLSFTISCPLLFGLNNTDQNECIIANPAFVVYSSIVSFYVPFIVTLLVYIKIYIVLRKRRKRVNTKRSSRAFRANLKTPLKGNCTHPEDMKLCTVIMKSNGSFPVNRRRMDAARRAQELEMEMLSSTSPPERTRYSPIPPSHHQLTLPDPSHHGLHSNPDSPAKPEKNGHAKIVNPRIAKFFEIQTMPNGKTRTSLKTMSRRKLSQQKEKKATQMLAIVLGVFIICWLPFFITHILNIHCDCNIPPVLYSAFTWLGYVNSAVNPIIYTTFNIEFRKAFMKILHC
Sequence of D(3) dopamine receptor (P35462 whole entry): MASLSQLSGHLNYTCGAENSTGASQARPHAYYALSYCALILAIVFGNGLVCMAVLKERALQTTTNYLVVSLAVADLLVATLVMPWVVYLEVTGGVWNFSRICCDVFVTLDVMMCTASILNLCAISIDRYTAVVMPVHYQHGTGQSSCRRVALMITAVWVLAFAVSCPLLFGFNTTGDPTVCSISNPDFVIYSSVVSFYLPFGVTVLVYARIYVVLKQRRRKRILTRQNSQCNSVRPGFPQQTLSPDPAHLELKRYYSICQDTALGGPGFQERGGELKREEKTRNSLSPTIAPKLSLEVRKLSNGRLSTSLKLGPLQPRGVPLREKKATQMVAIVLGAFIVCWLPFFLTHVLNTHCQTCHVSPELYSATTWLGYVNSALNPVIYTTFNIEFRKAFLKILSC
Sequence of Sigma non-opioid intracellular receptor 1 (Q9R0C9 whole entry): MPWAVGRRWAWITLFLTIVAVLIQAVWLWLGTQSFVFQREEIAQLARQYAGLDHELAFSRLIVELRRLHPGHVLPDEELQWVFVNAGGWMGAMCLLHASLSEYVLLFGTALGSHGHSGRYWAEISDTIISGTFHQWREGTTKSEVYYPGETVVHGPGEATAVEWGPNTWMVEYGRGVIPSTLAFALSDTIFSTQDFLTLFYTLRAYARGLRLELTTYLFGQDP
Description for D(3) dopamine receptor: Binding towards Dopamine receptor D3 expressed in CHO-K1 cells using [3H]spiperone
Description for D(4) dopamine receptor: Binding towards dopamine receptor D4 expressed in CHO-K1 cells using [3H]spiperone

Consider `CCCN1CCC[C@@H](c2cccc(OS(=O)(=O)C(F)(F)F)c2)C1`, for which the half-life in series [1] was 210 min. Also, the Activity was 139 with Rattus norvegicus [2]; 108 in the series with Rattus norvegicus [3]; 102 in the series with Rattus norvegicus [4]; 94 in the series on Rattus norvegicus [5]; 264 in the series with Rattus norvegicus [6]; 221 in the series on Rattus norvegicus [7]. Also, the Activity with Rattus norvegicus [8] came out at 89; in the series on Rattus norvegicus [9] it was 152; with Rattus norvegicus [10], 153; in the series on Rattus norvegicus [11], 162; in the series on Rattus norvegicus [12], 208; in the series listed under Rattus norvegicus [13], 129. In addition, the values for the Activity in the series filed under Rattus norvegicus [14] and in the series filed under Rattus norvegicus [15] were 128 and 25, respectively. The half-inhibitory concentration (IC50) in series [16] was determined as 32 nM.

Turning to `CCCN1CCCC(c2cccc(C#N)c2)C1` (racemic), the Activity amounted to 198 in the series on Rattus norvegicus [17], 103 in the series with Rattus norvegicus [3], 99 in the series on Rattus norvegicus [18] and 281 in the series with Rattus norvegicus [19].

`CCCN[C@@H]1CCc2c(OC)cccc2[C@@H]1C`: the Ki at D(2) dopamine receptor [20] came to 158 nM; at D(2) dopamine receptor [21], 300 nM; on D(2) dopamine receptor [22], 530 nM; on D(2) dopamine receptor [31], 145 nM; at D(3) dopamine receptor it was 26 nM; on D(4) dopamine receptor, 117 nM. Also, the Activity in the series with Rattus norvegicus [17] was determined as 253; in the series with Rattus norvegicus [23], 223; in the series with Rattus norvegicus [24], 159; in the series listed under Rattus norvegicus [25], 300; in the series on Rattus norvegicus [26] it was 108; in the series with Rattus norvegicus [27], 330. For the same molecule, the Activity is on record as 400 in the series with Rattus norvegicus [19]; 102 in the series on Rattus norvegicus [28]; 313 in the series with Rattus norvegicus [10]; 235 with Rattus norvegicus [29]; 315 in the series with Rattus norvegicus [11]; 285 in the series on Rattus norvegicus [12]. Besides, the Activity with Rattus norvegicus [30] is on record as 155; in the series filed under Rattus norvegicus [15], 11; in the series filed under Rattus norvegicus [32], 350.

On to `CCCN(CCC)[C@@H]1CCc2c(OC)cccc2[C@@H]1C`, for which the Ki at D(2) dopamine receptor [20] turned out to be 18 nM; on D(2) dopamine receptor [21], 100 nM; at D(2) dopamine receptor [22] it was 70 nM; at D(2) dopamine receptor [31] it was 13 nM; at D(3) dopamine receptor, 4 nM; at D(4) dopamine receptor it was 48 nM. Besides, the Activity in the series on Rattus norvegicus [17] came out at 245; with Rattus norvegicus [23] it was 180; with Rattus norvegicus [5], 116; in the series filed under Rattus norvegicus [25], 220; in the series on Rattus norvegicus [27], 270; in the series with Rattus norvegicus [19] it was 370. The Activity in the series on Rattus norvegicus [8] turned out to be 109; in the series on Rattus norvegicus [9], 207; in the series with Rattus norvegicus [10], 231; in the series on Rattus norvegicus [11], 307; in the series on Rattus norvegicus [12], 209; in the series listed under Rattus norvegicus [13], 70. The Activity is 140 in the series with Rattus norvegicus [33], 29 in the series filed under Rattus norvegicus [15] and 220 in the series listed under Rattus norvegicus [32].
